# Measured values reported in patent publication US12421210B2, “Fused bicyclic heterocycles as therapeutic agents” (NEW YORK UNIVERSITY, priority 2018, dated 2025).
# Where two headings read alike, the source gives them in different places.
# Molecular target: human NAMPT enzyme (His-hNAMPT) (Homo sapiens (Human), UniProt P43490)
# Experiment: NAMPT enzymatic inhibition assay (fluorescence, NADH product)
# Assay type: biochemical
# [1] = [HDB], read-out: NAMPT IC50 (μM) [HDB]
# [2] = [BPS], read-out: NAMPT IC50 (μM) [BPS]
# Chain of human NAMPT enzyme (His-hNAMPT) (P43490 whole entry): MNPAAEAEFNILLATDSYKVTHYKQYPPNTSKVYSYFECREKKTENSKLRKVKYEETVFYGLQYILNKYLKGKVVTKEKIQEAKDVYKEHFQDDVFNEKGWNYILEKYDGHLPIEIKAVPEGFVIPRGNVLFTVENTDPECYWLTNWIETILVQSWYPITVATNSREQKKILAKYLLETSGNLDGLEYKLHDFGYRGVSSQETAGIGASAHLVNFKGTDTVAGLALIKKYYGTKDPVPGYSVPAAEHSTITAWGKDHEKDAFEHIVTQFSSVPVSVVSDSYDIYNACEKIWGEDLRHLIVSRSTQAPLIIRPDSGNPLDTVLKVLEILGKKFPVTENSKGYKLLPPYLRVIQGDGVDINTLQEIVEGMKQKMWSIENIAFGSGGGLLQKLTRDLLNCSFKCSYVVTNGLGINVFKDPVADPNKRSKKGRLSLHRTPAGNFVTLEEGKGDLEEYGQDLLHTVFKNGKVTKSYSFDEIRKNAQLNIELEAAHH
IC50 [1],IC50 [2],SMILES
0.01 to 0.49 µM,,"O=C(NCC[C@@H]1[C@H]2CN(c3ccc(F)cc3)C[C@@H]12)c1cc2ccncc2o1 [Example 196, N-(2-((1R,5S,6s)-3-(4-fluorophenyl)-3-azabicyclo[3.1.0]hexan-6-yl)ethyl)furo[2,3-c]pyridine-2-carboxamide]"
0.01 to 0.49 µM,,"O=C(NCC[C@@H]1[C@H]2CN(c3cccc(F)c3)C[C@@H]12)c1cc2ccncc2o1 [Example 197, N-(2-((1R,5S,6s)-3-(3-fluorophenyl)-3-azabicyclo[3.1.0]hexan-6-yl)ethyl)furo[2,3-c]pyridine-2-carboxamide]"
0.01 to 0.49 µM,,"O=C(NCC[C@@H]1[C@H]2CN(c3ccccc3)C[C@@H]12)c1cc2cnccc2[nH]1 [Example 198, N-(2-((1R,5S,6s)-3-phenyl-3-azabicyclo[3.1.0]hexan-6-yl)ethyl)-1H-pyrrolo[3,2-c]pyridine-2-carboxamide]"
0.01 to 0.49 µM,,"O=C(NCC[C@@H]1[C@H]2CN(c3ncccn3)C[C@@H]12)c1cnc2nccn2c1 [Example 199, N-(2-((1R,5S,6s)-3-(pyrimidin-2-yl)-3-azabicyclo[3.1.0]hexan-6-yl)ethyl)imidazo[1,2-a]pyrimidine-6-carboxamide]"
0.01 to 0.49 µM,,"O=C(NCC[C@@H]1[C@H]2CN(c3ncccn3)C[C@@H]12)c1cc2ccncc2s1 [Example 200, N-(2-((1R,5S,6s)-3-(pyrimidin-2-yl)-3-azabicyclo[3.1.0]hexan-6-yl)ethyl)thieno[2,3-c]pyridine-2-carboxamide]"
< 0.01 µM,,"Nc1ccc(/C=C/C(=O)NCC[C@@H]2[C@H]3CN(c4cccc(F)c4)C[C@@H]23)cn1 [Example 201, (E)-3-(6-aminopyridin-3-yl)-N-(2-((1R,5S,6s)-3-(3-fluorophenyl)-3-azabicyclo[3.1.0]hexan-6-yl)ethyl)acrylamide]"
0.01 to 0.49 µM,,"Nc1ccc(/C=C/C(=O)NCC[C@@H]2[C@H]3CN(c4cccc(C(F)(F)F)c4)C[C@@H]23)cn1 [Example 202, (E)-3-(6-aminopyridin-3-yl)-N-(2-((1R,5S,6s)-3-(3-(trifluoromethyl)phenyl)-3-azabicyclo[3.1.0]hexan-6-yl)ethyl)acrylamide]"
0.01 to 0.49 µM,,"O=C(NCC[C@@H]1[C@H]2CN(c3nc(Cl)ncc3F)C[C@@H]12)c1ccc2nccn2c1 [Example 203, N-(2-((1R,5S,6s)-3-(2-chloro-5-fluoropyrimidin-4-yl)-3-azabicyclo[3.1.0]hexan-6-yl)ethyl)imidazo[1,2-a]pyridine-6-carboxamide]"
0.01 to 0.49 µM,,"O=C(NCC[C@@H]1[C@H]2CN(c3nc(Cl)ncc3F)C[C@@H]12)c1cc2cnccc2[nH]1 [Example 204, N-(2-((1R,5S,6s)-3-(2-chloro-5-fluoropyrimidin-4-yl)-3-azabicyclo[3.1.0]hexan-6-yl)ethyl)-1H-pyrrolo[3,2-c]pyridine-2-carboxamide]"
0.01 to 0.49 µM,,"Nc1ccc(/C=C/C(=O)NCC[C@@H]2[C@H]3CN(c4nc(Cl)ncc4F)C[C@@H]23)cn1 [Example 206, (E)-3-(6-aminopyridin-3-yl)-N-(2-((1R,5S,6s)-3-(2-chloro-5-fluoropyrimidin-4-yl)-3-azabicyclo[3.1.0]hexan-6-yl)ethyl)acrylamide]"

# The remaining lines, values behind:
SMILES,IC50 [1],IC50 [2]
"O=C(O)c1cccc(C(=O)N2C[C@@H]3[C@@H](CCNC(=O)c4cnc5nccn5c4)[C@@H]3C2)c1 [Example 182, 3-((1R,5S,6s)-6-(2-(imidazo[1,2-a]pyrimidine-6-carboxamido)ethyl)-3-azabicyclo[3.1.0]hexane-3-carbonyl)benzoic acid]",0.01 to 0.49 µM,
"NC(=O)c1cccc(N2C[C@@H]3[C@@H](CCNC(=O)/C=C/c4cccnc4)[C@@H]3C2)c1 [Example 183, 3-((1R,5S,6s)-6-(2-((E)-3-(pyridin-3-yl)acrylamido)ethyl)-3-azabicyclo[3.1.0]hexan-3-yl)benzamide]",0.01 to 0.49 µM,
"CC(=O)Nc1cccc(N2C[C@@H]3[C@@H](CCNC(=O)/C=C/c4cccnc4)[C@@H]3C2)c1 [Example 184, (E)-N-(2-((1R,5S,6s)-3-(3-acetamidophenyl)-3-azabicyclo[3.1.0]hexan-6-yl)ethyl)-3-(pyridin-3-yl)acrylamide]",0.01 to 0.49 µM,
"CS(=O)(=O)Nc1cccc(N2C[C@@H]3[C@@H](CCNC(=O)/C=C/c4cccnc4)[C@@H]3C2)c1 [Example 185, (E)-N-(2-((1R,5S,6s)-3-(3-(methylsulfonamido)phenyl)-3-azabicyclo[3.1.0]hexan-6-yl)ethyl)-3-(pyridin-3-yl)acrylamide]",0.01 to 0.49 µM,
"NC(=O)c1ccc(N2C[C@@H]3[C@@H](CCNC(=O)/C=C/c4cccnc4)[C@@H]3C2)cc1 [Example 186, 4-((1R,5S,6s)-6-(2-((E)-3-(pyridin-3-yl)acrylamido)ethyl)-3-azabicyclo[3.1.0]hexan-3-yl)benzamide]",0.01 to 0.49 µM,
"O=C(/C=C/c1cccnc1)NCC[C@@H]1[C@H]2CN(c3ncc(F)c(O)n3)C[C@@H]12 [Example 187, (E)-N-(2-((1R,5S,6s)-3-(5-fluoro-4-hydroxypyrimidin-2-yl)-3-azabicyclo[3.1.0]hexan-6-yl)ethyl)-3-(pyridin-3-yl)acrylamide]",0.01 to 0.49 µM,
"O=C(/C=C/c1cccnc1)NCC[C@@H]1[C@H]2CN(c3ncc(F)c(Cl)n3)C[C@@H]12 [Example 188, (E)-N-(2-((1R,5S,6s)-3-(4-chloro-5-fluoropyrimidin-2-yl)-3-azabicyclo[3.1.0]hexan-6-yl)ethyl)-3-(pyridin-3-yl)acrylamide]",< 0.01 µM,
"Nc1ccc(/C=C/C(=O)NCC[C@@H]2[C@H]3CN(c4ncccn4)C[C@@H]23)cn1 [Example 189, (E)-3-(6-aminopyridin-3-yl)-N-(2-((1R,5S,6s)-3-(pyrimidin-2-yl)-3-azabicyclo[3.1.0]hexan-6-yl)ethyl)acrylamide]",,0.01 to 0.49 µM
"Nc1ccc(/C=C/C(=O)NCC[C@@H]2[C@H]3CN(c4nc5ccccc5s4)C[C@@H]23)cn1 [Example 190, (E)-3-(6-aminopyridin-3-yl)-N-(2-((1R,5S,6s)-3-(benzo[d]thiazol-2-yl)-3-azabicyclo[3.1.0]hexan-6-yl)ethyl)acrylamide]",,0.01 to 0.49 µM
"Nc1ccc(/C=C/C(=O)NCC[C@@H]2[C@H]3CN(c4cccc5ccccc45)C[C@@H]23)cn1 [Example 191, (E)-3-(6-aminopyridin-3-yl)-N-(2-((1R,5S,6s)-3-(naphthalen-1-yl)-3-azabicyclo[3.1.0]hexan-6-yl)ethyl)acrylamide]",,0.01 to 0.49 µM
"Nc1ccc(/C=C/C(=O)NCC[C@@H]2[C@H]3CN(c4ccccc4)C[C@@H]23)cn1 [Example 192, (E)-3-(6-aminopyridin-3-yl)-N-(2-((1R,5S,6s)-3-phenyl-3-azabicyclo[3.1.0]hexan-6-yl)ethyl)acrylamide]",,0.01 to 0.49 µM
"O=C(NCC[C@@H]1[C@H]2CN(c3ccccc3)C[C@@H]12)c1cc2ccncc2o1 [Example 193, N-(2-((1R,5S,6s)-3-phenyl-3-azabicyclo[3.1.0]hexan-6-yl)ethyl)furo[2,3-c]pyridine-2-carboxamide]",< 0.01 µM,
"O=C(NCC[C@@H]1[C@H]2CN(c3ncccn3)C[C@@H]12)c1cc2cnccc2[nH]1 [Example 194, N-(2-((1R,5S,6s)-3-(pyrimidin-2-yl)-3-azabicyclo[3.1.0]hexan-6-yl)ethyl)-1H-pyrrolo[3,2-c]pyridine-2-carboxamide]",0.01 to 0.49 µM,
"O=C(/C=C/c1cccnc1)NCC[C@@H]1[C@H]2CN(c3ccc(F)cc3)C[C@@H]12 [Example 195, (E)-N-(2-((1R,5S,6s)-3-(4-fluorophenyl)-3-azabicyclo[3.1.0]hexan-6-yl)ethyl)-3-(pyridin-3-yl)acrylamide]",0.01 to 0.49 µM,
